The values below come from patent US20250171423A1, “PHARMACEUTICAL COMPOUNDS FOR THE TREATMENT OF COMPLEMENT MEDIATED DISORDERS” (Achillion Pharmaceuticals, Inc., priority 2020, published 2025).

Structures are written as SMILES.

The test deals with T1, Human complement C1s enzyme (Homo sapiens, UniProt P09871).
T1 construct: purified from human serum, Complement Technology, Inc; purchased Complement Technology, Inc; host or cells: human serum
T1 sequence (P09871 438-688 limits assumed): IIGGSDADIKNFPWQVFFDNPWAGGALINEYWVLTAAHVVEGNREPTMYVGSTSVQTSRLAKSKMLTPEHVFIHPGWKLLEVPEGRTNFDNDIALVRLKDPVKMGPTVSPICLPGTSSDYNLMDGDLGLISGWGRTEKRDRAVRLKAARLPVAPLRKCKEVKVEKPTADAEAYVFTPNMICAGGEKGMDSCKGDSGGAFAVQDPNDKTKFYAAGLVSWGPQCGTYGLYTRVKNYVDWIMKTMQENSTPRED
T1 sequence (P09871 16-437 partner limits assumed): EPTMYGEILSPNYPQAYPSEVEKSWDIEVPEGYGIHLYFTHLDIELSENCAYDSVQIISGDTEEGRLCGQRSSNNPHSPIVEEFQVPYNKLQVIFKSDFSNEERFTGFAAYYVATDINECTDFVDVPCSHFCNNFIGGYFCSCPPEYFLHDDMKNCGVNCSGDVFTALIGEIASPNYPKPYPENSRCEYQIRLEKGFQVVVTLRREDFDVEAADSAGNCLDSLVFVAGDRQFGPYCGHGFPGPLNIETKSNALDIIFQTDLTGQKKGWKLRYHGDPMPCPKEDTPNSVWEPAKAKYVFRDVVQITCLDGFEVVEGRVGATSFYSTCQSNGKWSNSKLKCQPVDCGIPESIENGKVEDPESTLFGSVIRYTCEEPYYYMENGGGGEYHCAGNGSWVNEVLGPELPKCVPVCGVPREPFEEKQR
Briefly: Human C1s Enzyme Assay. The test is classed as biochemical. The conditions noted are these: human C1s 1.16 nM, 5 min preincubation, substrate Z-L-Lys-SBzl 100 μM, A405; read-out: C1s Protease Activity. The protocol: The assay of Example 3 was used to determine the IC50's of the compounds. Other standard complement assays are also available.
Example 3. Human C1s Enzyme Assay
Human complement C1s enzyme (purified from human serum, Complement Technology, Inc.) at 1.16 nM final concentration was incubated with test compound at various concentrations for 5 min at room temperature in 50 mM Tris, 1 M NaCl, pH 7.5. A synthetic substrate Z-L-Lys-SBzl and DTNB (Ellman's reagent) were added to final concentrations of 100 μM each. Absorbance at 405 nm (A405) was recorded at 30 second intervals for 30 min using a microplate spectrophotometer. IC50 values were calculated by nonlinear regression of complement C1s reaction rates as a function of test compound concentration.
With `C[C@@]12C[C@@H]1N(C(=O)CNC(=O)c1ccc(Oc3ccccc3)cc1)[C@H](C(=O)NS(=O)(=O)c1cc(C(=N)N)cs1)C2` [Compound 86, (1S,3S,5S)-N-((4-carbamimidoylthiophen-2-yl)sulfonyl)-5-methyl-2-((4-phenoxy-benzoyl)glycyl)-2-azabicyclo[3.1.0]hexane-3-carboxamide], the IC50 was above 1000 nM.
The same measure for `C[C@@]12C[C@@H]1N(C(=O)CNC(=O)c1ccc(Oc3ccccc3)cc1)[C@H](C(=O)NCc1cc(/C(N)=N/[N+](=O)[O-])cs1)C2` [Compound 11, (1S,3S,5S)-5-methyl-N-((4-((Z)-N′-nitrocarbamimidoyl)thiophen-2-yl)methyl)-2-((4-phenoxybenzoyl)glycyl)-2-azabicyclo[3.1.0]hexane-3-carboxamide]: above 1000 nM; for `N=C(N)c1csc(CNC(=O)[C@@H]2C[C@H](OC(F)F)CN2C(=O)CNC(=O)c2ccc(Oc3ccccc3)cc2)c1` [Compound 36, (2S,4S)-N-((4-carbamimidoylthiophen-2-yl)methyl)-4-(difluoromethoxy)-1-((4-phenoxybenzoyl)glycyl)pyrrolidine-2-carboxamide]: below 100 nM; for `C[C@@]12C[C@@H]1N(C(=O)CNC(=O)c1ccc(Oc3ccccc3)cc1)[C@H](C(=O)NCc1nc(C(=N)N)cs1)C2` [Compound 2, (1S,3S,5S)-N-((4-carbamimidoylthiazol-2-yl)methyl)-5-methyl-2-((4-phenoxy-benzoyl)glycyl)-2-azabicyclo[3.1.0]hexane-3-carboxamide]: below 100 nM.
For `COC[C@@]1(F)C[C@@H](C(=O)N[C@H](C)c2cc(C(=N)N)cs2)N(C(=O)CNC(=O)c2ccc(C(=O)c3ccccc3)cc2)C1` [Compound 218, (2S,4R)-1-((4-benzoylbenzoyl)glycyl)-N-((R)-1-(4-carbamimidoylthiophen-2-yl)ethyl)-4-fluoro-4-(methoxymethyl)pyrrolidine-2-carboxamide] the value was below 100 nM.
`N=C(N)c1csc(CNC(=O)CNC(=O)CNC(=O)c2ccc(Oc3ccccc3)cc2)c1` [Compound 77, N-(2-((2-(((4-carbamimidoylthiophen-2-yl)methyl)amino)-2-oxoethyl)amino)-2-oxoethyl)-4-phenoxybenzamide]: the IC50 lay within 100 to 1000 nM.
The same measure for `C[C@@]12C[C@@H]1N(C(=O)CNC(=O)c1ccc(Oc3ccccc3)cc1)[C@H](C(=O)NC1(c3cc(C(=N)N)cs3)CC1)C2` [Compound 41, (1S,3S,5S)-N-(1-(4-carbamimidoylthiophen-2-yl)cyclopropyl)-5-methyl-2-((4-phenoxybenzoyl)glycyl)-2-azabicyclo[3.1.0]hexane-3-carboxamide]: below 100 nM; for `C[C@@]12C[C@@H]1N(C(=O)CNC(=O)c1cc3cc(Oc4ccccc4)ccc3o1)[C@H](C(=O)NCc1cc(C(=N)N)cs1)C2` [Compound 132, (1S,3S,5S)-N-((4-carbamimidoylthiophen-2-yl)methyl)-5-methyl-2-((5-phenoxybenzofuran-2-carbonyl)glycyl)-2-azabicyclo[3.1.0]hexane-3-carboxamide]: below 100 nM.
With `N=C(N)c1csc(CNC(=O)[C@@H]2CC3(CN2C(=O)CNC(=O)CCCOc2ccccc2)OCCO3)c1` [Compound 28, (S)-N-((4-carbamimidoylthiophen-2-yl)methyl)-7-((4-phenoxybutanoyl)glycyl)-1,4-dioxa-7-azaspiro[4.4]nonane-8-carboxamide], the IC50 is below 100 nM.
Regarding `CO[C@@H]1C[C@@H](C(=O)N[C@H](C)c2cc(C(=N)N)cs2)N(C(=O)CNC(=O)c2ccc(Oc3ccccc3)cc2)C1` [Compound 185, (2S,4R)-N-((R)-1-(4-carbamimidoylthiophen-2-yl)ethyl)-4-methoxy-1-((4-phenoxybenzoyl)glycyl)pyrrolidine-2-carboxamide], the IC50 is below 100 nM.
Turning to `N=C(N)c1csc(CNC(=O)[C@@H]2C[C@@H](C(F)F)CN2C(=O)CNC(=O)c2ccc(Oc3ccccc3)cc2)c1` [Compound 151, (2S,4R)-N-((4-carbamimidoylthiophen-2-yl)methyl)-4-(difluoromethyl)-1-((4-phenoxybenzoyl)glycyl)pyrrolidine-2-carboxamide], the IC50 was below 100 nM.
